Experiment [1] has as its target T1, human factor XIa (Homo sapiens, UniProt P03951). Description: Dose-response inhibition of wild-type factor XIa, S-2366 hydrolysis assay. Conditions: for HS (Hill slope) / Y0 (minimum value of the residual activity): logistic fit eq 1; for Y0 (minimum value of the residual activity): residual activity Y in %; for improvement in potency over the best sulfated QAO designed earlier: comparison with earlier studies.

The target of experiment [2] is T1, human factor XIa. Description: Michaelis-Menten kinetics of S-2366 hydrolysis in the presence of inhibitors. Format: biochemical. Conditions: for VMAX: S-2366 0-1.6 mM; for mechanism of inhibition: VMAX reduced dose-dependently without significant change in KM.
The test system of experiment [3] is factor XIa. The experiment can be described thus: Competitive inhibition studies using unfractionated heparin as a competitor. Format: biochemical, human. Conditions: UFH 0 to 16 μM; 50 mM Tris-HCl pH 7.4, 37 °C.
The target in experiment [4] is T1, human factor XIa. It counts as biochemical. Conditions: 50 mM Tris-HCl pH 7.4, 37 °C; for reduction in residual fXIa activity (inhibition) in the screen: 300 μM inhibitor; for enhancement of fXIa catalysis in the screen: 300 μM compound.
In experiment [5] the test system is fluorescein-EGR factor XIa (fEGR-fXIa). It counts as binding, human. Conditions: bolus giving ∼33 μM in fXIa solution quenched with 0.175 M NaI.

T1 sequence (P03951 19-387 limits assumed): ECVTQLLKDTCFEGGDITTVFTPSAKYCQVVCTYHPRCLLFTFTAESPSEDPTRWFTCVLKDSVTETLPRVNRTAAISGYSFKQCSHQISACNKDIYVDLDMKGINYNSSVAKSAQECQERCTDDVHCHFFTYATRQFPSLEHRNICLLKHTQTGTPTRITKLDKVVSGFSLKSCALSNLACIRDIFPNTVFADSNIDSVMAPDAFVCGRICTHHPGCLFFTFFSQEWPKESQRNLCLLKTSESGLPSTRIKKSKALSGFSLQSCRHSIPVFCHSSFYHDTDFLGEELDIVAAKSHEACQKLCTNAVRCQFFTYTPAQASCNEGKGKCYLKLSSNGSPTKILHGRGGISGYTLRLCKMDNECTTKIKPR
T1 sequence (P03951 388-625 limits assumed): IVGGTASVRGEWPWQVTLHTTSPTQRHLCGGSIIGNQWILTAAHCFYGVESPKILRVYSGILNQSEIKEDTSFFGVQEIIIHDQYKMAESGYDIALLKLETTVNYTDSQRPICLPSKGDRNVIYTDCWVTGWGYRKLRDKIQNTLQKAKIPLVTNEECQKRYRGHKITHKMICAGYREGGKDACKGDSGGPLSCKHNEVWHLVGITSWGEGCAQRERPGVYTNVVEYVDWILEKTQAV

For `COC(=O)c1c(C)oc2cc(OC)c(OCc3oc4cc(OC)c(OS(=O)(=O)[O-])cc4c3C(=O)OC)cc12.[Na+]` [compound 15], in experiment [1], the “HS (Hill slope)” value is 6.9 ± 1.2 and the “Y0 (minimum value of the residual activity)” value is reported as 4 ± 4.
As to `CCOC(=O)c1c(C)oc2cc(OC)c(OCc3oc4cc(OCC)c(OS(=O)(=O)[O-])cc4c3C(=O)OCC)cc12.[Na+]` [compound 21], the VMAX in experiment [2] (21 at 5 μM, fXIa 0.365 nM) is on record as 37.4 ± 1.4 mAU/min. The VMAX in experiment [2] (21 at 7.25 μM, fXIa 0.365 nM) amounted to 30.7 ± 0.6 mAU/min. Further, the VMAX in experiment [2] (21 at 10 μM, fXIa 0.365 nM) is reported as 20.3 ± 1.2 mAU/min. In experiment [2], the mechanism of inhibition result is given as “noncompetitive inhibition”. Also, the “change in IC50 in the presence of UFH” value in experiment [3] was “no significant change”. Further, in experiment [1], the “improvement in potency over the best sulfated QAO designed earlier” value is listed as 10 fold, the “HS (Hill slope)” value is 1.9 ± 0.3 and the “Y0 (minimum value of the residual activity)” value is 0 ± 2.
For the compound `CCOC(=O)c1c(C)oc2cc(OCc3oc4cc(OC)c(OS(=O)(=O)[O-])cc4c3C(=O)OCC)c(OC)cc12.[Na+]` [compound 22], the “reduction in residual fXIa activity (inhibition) in the screen” value in experiment [4] was “did not inhibit fXIa”.
In the case of `CCOC(=O)c1c(C)oc2cc(OC)c(OCc3oc4cc(OC)c(OCc5oc6cc(OC)c(OS(=O)(=O)[O-])cc6c5C(=O)OC)cc4c3C(=O)OCC)cc12.[Na+]` [compound 23], in experiment [1], the “HS (Hill slope)” value is 5.2 ± 0.4 and the “Y0 (minimum value of the residual activity)” value is on record as 7 ± 1.
Take `CCOC(=O)c1c(C)oc2cc(OC)c(OCc3oc4cc(OC)c(OCc5oc6cc(OCC)c(OS(=O)(=O)[O-])cc6c5C(=O)OCC)cc4c3C(=O)OCC)cc12.[Na+]` [compound 24]: the VMAX in experiment [2] (24 at 150 nM, fXIa 0.765 nM) was found to be 57.1 ± 1.8 mAU/min; in experiment [2] (24 at 300 nM, fXIa 0.765 nM) it was 48.7 ± 1.7 mAU/min; in experiment [2] (24 at 550 nM, fXIa 0.765 nM), 34.9 ± 0.9 mAU/min; in experiment [2] (24 at 900 nM, fXIa 0.765 nM), 9.8 ± 0.5 mAU/min. In experiment [2], the mechanism of inhibition result was “noncompetitive inhibition”. Besides, in experiment [3], the “change in IC50 in the presence of UFH” value is recorded as “no significant change”. In addition, the “nature of the interaction with fXIa (recovery of fluorescence after bolus)” value in experiment [5] is “fully reversible”. In addition, the “improvement in potency over the best sulfated QAO designed earlier” value in experiment [1] is recorded as approximately 50 fold. In addition, in experiment [1], the “HS (Hill slope)” value came to 3.8 ± 0.3. In addition, in experiment [1], the “Y0 (minimum value of the residual activity)” value stood at 0 ± 1.
For the compound `CCOC(=O)c1c(C)oc2cc(OC)c(OCc3oc4cc(OC)c(OCc5oc6cc(OC(C)C)c(OS(=O)(=O)[O-])cc6c5C(=O)OCC)cc4c3C(=O)OCC)cc12.[Na+]` [compound 25], in experiment [1], the “HS (Hill slope)” value is 6.6 ± 0.8 and the “Y0 (minimum value of the residual activity)” value is on record as 3 ± 2.
Take `CCOC(=O)c1c(C)oc2cc(OC)c(OCc3oc4cc(OC)c(OCc5oc6cc(OC)c(OS(=O)(=O)[O-])cc6c5C(=O)OCC)cc4c3C(=O)OCC)cc12.[Na+]` [compound 27]: in experiment [1], the “HS (Hill slope)” value was 11.7 ± 1.5 and the “Y0 (minimum value of the residual activity)” value came to 2 ± 1.
Take `C=CCOC(=O)c1c(C)oc2cc(OC)c(OCc3oc4cc(OC)c(OCc5oc6cc(OC)c(OS(=O)(=O)[O-])cc6c5C(=O)OCC)cc4c3C(=O)OCC)cc12.[Na+]` [compound 28]: in experiment [1], the “HS (Hill slope)” value is listed as 6.4 ± 0.9 and the “Y0 (minimum value of the residual activity)” value came out at 10 ± 2.
As for `CCOC(=O)c1c(COc2cc3c(C(=O)OCC)c(COc4cc5c(C(=O)O)c(C)oc5cc4OC)oc3cc2OC)oc2cc(OC)c(O)cc12` [compound 29], the “loss in activity from sulfated analogue 30” value in experiment [1] (IC50 ratio 29 vs 30) is listed as approximately 13 fold. Moreover, in experiment [1], the “HS (Hill slope)” value was 1.9 ± 0.4 and the “Y0 (minimum value of the residual activity)” value came to 0 ± 1.
Regarding `CCOC(=O)c1c(COc2cc3c(C(=O)O)c(C)oc3cc2OC)oc2cc(OC)c(OCc3oc4cc(OC)c(OS(=O)(=O)[O-])cc4c3C(=O)OCC)cc12.[Na+]` [compound 30], the “less potent than 3-carboxyethyl ester analogue 27” value in experiment [1] (IC50 ratio 30 vs 27) came out at 4.7 fold. In experiment [1], the “HS (Hill slope)” value came to 6.9 ± 0.7 and the “Y0 (minimum value of the residual activity)” value turned out to be 3 ± 2.
For `CCOC(=O)c1c(C)oc2cc(OC)c(OCc3oc4cc(OC)c(OCc5oc6cc(OS(=O)(=O)[O-])c(OC)cc6c5C(=O)OCC)cc4c3C(=O)OCC)cc12.[Na+]` [compound 31], in experiment [4], the “reduction in residual fXIa activity (inhibition) in the screen” value is “did not inhibit fXIa”.
For the compound `CCOC(=O)c1c(C)oc2cc(OC)c(OCc3oc4cc(OC)c(OCc5oc6cc(OC)c(OCc7oc8cc(OC)c(OS(=O)(=O)[O-])cc8c7C(=O)OCC)cc6c5C(=O)OCC)cc4c3C(=O)OCC)cc12.[Na+]` [compound 32], in experiment [1], the “HS (Hill slope)” value was determined as 1.3 ± 0.2 and the “Y0 (minimum value of the residual activity)” value is on record as 0 ± 1.
With `O=C(c1cc(OS(=O)(=O)[O-])cc(OS(=O)(=O)[O-])c1)N1CCc2cc(OS(=O)(=O)[O-])c(OS(=O)(=O)[O-])cc2C1.[Na+].[Na+].[Na+].[Na+]` [compound 33], the “enhancement of fXIa catalysis in the screen” value in experiment [4] is recorded as 20–30%.
Take `CCOC(=O)C1Cc2cc(OS(=O)(=O)[O-])c(OS(=O)(=O)[O-])cc2CN1C(=O)c1ccc(OS(=O)(=O)[O-])c(OS(=O)(=O)[O-])c1.[Na+].[Na+].[Na+].[Na+]` (stereo not shown) [compound 35]: the “enhancement of fXIa catalysis in the screen” value in experiment [4] is listed as 20–30%.
The same measure, in the same setting: the result for `O=C(c1cc(OS(=O)(=O)[O-])c(OS(=O)(=O)[O-])c(OS(=O)(=O)[O-])c1)N1CCc2cc(OS(=O)(=O)[O-])c(OS(=O)(=O)[O-])cc2C1.[Na+].[Na+].[Na+].[Na+].[Na+]` [compound 36] reads 20–30%; that for `O=C([O-])C1Cc2cc(OS(=O)(=O)[O-])c(OS(=O)(=O)[O-])cc2CN1C(=O)c1cc(OS(=O)(=O)[O-])c(OS(=O)(=O)[O-])c(OS(=O)(=O)[O-])c1.[Na+].[Na+].[Na+].[Na+].[Na+].[Na+]` (stereo not shown) [compound 37], 20–30%.
`N#Cc1c(SCC(=O)c2cccc(OS(=O)(=O)[O-])c2OS(=O)(=O)[O-])nc([N+](=O)[O-])c(C#N)c1-c1ccc(Oc2ccccc2)cc1.[Na+].[Na+]` [compound 61]: in experiment [1], the “HS (Hill slope)” value was found to be 6.2 ± 0.5 and the “Y0 (minimum value of the residual activity)” value came to 0 ± 1.
In the case of `O=C(Nc1ccc(OS(=O)(=O)[O-])cc1)c1cccc(N2C(=O)c3ccc(C(=O)Nc4ccc(OS(=O)(=O)[O-])cc4)cc3C2=O)c1.[Na+].[Na+]` [compound 63], in experiment [1], the “HS (Hill slope)” value was determined as 6.0 ± 0.9 and the “Y0 (minimum value of the residual activity)” value came to 0 ± 1.
